Read-outs that look alike come from different tables or passages of the source.
Assays:
[1] = system: Dengue virus type 2 (DENV-2); assay: microbe, parasite or virus in culture; type: cell-based; settings: read-out: DENV-2 EC50
Yellow Fever (YFV) = assay: microbe, parasite or virus in culture; type: cell-based, Yellow Fever virus; settings: read-out: YFV EC50
[2] = Yellow fever virus, BHK-21, 144 h

| Compound | EC50 [1] | EC50 (Yellow Fever (YFV)) | EC50 (Yellow Fever (YFV); [2]) | EC50 ([1]; Dengue virus, DENV2, 144 h) |
| --- | --- | --- | --- | --- |
| C#C[C@@]1(F)[C@H](O)[C@@H](COP(=O)(N[C@@H](C)C(=O)OC(C)C)Oc2ccccc2)O[C@H]1n1cnc2c(NC3CC3)nc(N)nc21 (stereo partly drawn) [Compound 6, (2S)-Isopropyl 2-(((((2R,3R,4R,5R)-5-(2-amino-6-(cyclopropylamino)-9H-purin-9-yl)-4-ethynyl-4-fluoro-3-hydroxytetrahydrofuran-2-yl)methoxy)phenoxy)phosphoryl)amino) propanoate] | 42 µM |  |  |  |
| C#C[C@@]1(F)[C@H](O)[C@@H](COP(=O)(N[C@@H](C)C(=O)OC(C)C)Oc2ccccc2)O[C@H]1n1cnc2c(NC)nc(N)nc21 (stereo partly drawn) [Compound 4, (2S)-Isopropyl 2-(((((2R,3R,4R,5R)-5-(2-amino-6-(methylamino)-9H-purin-9-yl)-4-ethynyl-4-fluoro-3-hydroxytetrahydrofuran-2-yl)methoxy)phenoxy)phosphoryl)-amino) Propanoate] | 612 µM | 7 µM |  |  |
| C#C[C@@]1(F)[C@H](O)[C@@H](COP(=O)(N[C@@H](C)C(=O)OC(C)C)Oc2ccccc2)O[C@H]1n1cnc2c(N(C)C)nc(N)nc21 (mixture of isomers) [Compound 2, (2S)-Isopropyl 2-(((((2R,3R,4R,5R)-5-(2-amino-6-(dimethylamino)-9H-purin-9-yl)-4-ethynyl-4-fluoro-3-hydroxytetrahydrofuran-2-yl)methoxy)(phenoxy)phosphoryl)amino) propanoate] |  |  | 12.6 µM | 72.5 µM |
| CNc1nc(N)nc2c1ncn2[C@@H]1O[C@H](CO[P@@](=O)(N[C@@H](C)C(=O)OC(C)C)Oc2ccccc2)[C@@H](O)[C@@]1(C)F [Compound 205, isopropyl ((((R,S)-(2R,3R,4R,5R)-5-(2-amino-6-(methylamino)-9H-purin-9-yl)-4-fluoro-3-hydroxy-4-methyltetrahydrofuran-2-yl)methoxy)-phenoxy-phosphoryl)-L-alaninate] |  |  | 1.2 µM | 0.8 µM |
| CC(C)OC(=O)[C@H](C)N[P@](=O)(OC[C@H]1C(C)[C@@H](n2cnc3c(N)ncnc32)[C@H](O)[C@@H]1O)Oc1ccccc1 (stereo partly drawn) [Compound 204, (2S)-Isopropyl 2-(((S)-(((1R,3R,4S,5R)-3-(6-amino-9H-purin-9-yl)-4,5-dihydroxy-2-methylcyclopentyl)methoxy)(phenoxy)phosphoryl)amino)propanoate] |  |  | > 2.1 µM | > 2.1 µM |
| CC1[C@@H](n2cnc3c(N)ncnc32)[C@H](O)[C@H](O)[C@H]1CO (some centres unmarked) [Compound 206] |  |  | 2.3 µM | 1.83 µM |

Reference: US10946033B2, “2′-substituted-N6-substituted purine nucleotides for RNA virus treatment” (priority 2016, dated 2021)
